Consider 12 compounds from US4376785A, “Cyclopropanecarboxylates and a low fish toxic insecticide and/or acaricide containing them” (priority 1980, dated 1983).

The test system of data set [1] is carmine mites (Tetranychus cinnabarinus). Nature of the data set: Damage to rice plants by carmine mites, Test example 4. Format: in vivo. The settings on record: 500 ppm spray, after 10 days. As for the experimental part: The emulsifiable concentrate of each of the present compounds (3), (5), (9) and (11) prepared in Preparation example 1 was diluted with water so that the concentration of the active ingredient was 500 ppm. The dilute liquor was thoroughly sprayed on rice plants (grown in a 1/10,000 are Waner's pot) on which carmine mites (Tetranychus cinnabarinus) in all stages were made parasitic.

Data set [2] has as its system green rice leafhopper (Nephotettix cincticeps). The data set can be described thus: Simulated paddy field box test, green rice leafhopper, Test example 6. It is filed as in vivo. The settings on record: wettable powder, 100 ppm, 100 liter/10 are, after 48 hours. As for the experimental part:
(§1) The wettable powder of each of the present compounds (1), (3), (5), (6) and (11) prepared in Preparation example 4 was diluted with water so that the concentration of active ingredient was 100 ppm. Soil was placed in a plastic box [5 m×5 m×2 m (deep)] to a level of 50 cm from the bottom, and rice plants about 50 cm high were transplanted at invervals of 50 cm. Water was then placed in the box so that water depth was 5 cm, and 20 killifishes (Oryzias latipes) were liberated therein. Thereafter, the above dilute solution was sprayed on the box at a rate of 100 liter/10 are. The solution fell on the rice plants as well as on the water surface.
(§2) One hour after treatment, 100 female adults of green rice leafhopper (Nephotettix cincticeps) were liberated in the box which was immediately covered with a net.

For data set [3], the system named is killifishes (Oryzias latipes). Nature of the data set: Simulated paddy field box test, killifish survival, Test example 6. The settings on record: wettable powder, 100 ppm, 100 liter/10 are, water depth 5 cm, after 48 hours. It is filed as in vivo. As to the method:
as §1, §2

The subject of data set [4] is housefly (Musca domestica). The data set can be described thus: Housefly mortality, treated filter paper with bait, Test example 7. Format: in vivo. The settings on record: 0.7 ml on filter paper, housefly female adults, 48 hours. As to the method: The emulsifiable concentrate obtained in preparation Example 1 was diluted 200 times with water (corresponding to 500 ppm of the active ingredient). On the bottom a polyethylene cup of 5.5 cm in diameter was placed a piece of filter paper of the same size, and 0.7 ml of the above dilute liquor was dropped on the filter paper. Sucrose (30 mg) was placed on the paper as bait. Thereafter, 10 housefly female adults (Musca domestica) were liberated in the cup which was then covered with a lid. After 48 hours, the dead and alive were counted to obtain mortality (4 replications).

Data set [5] concerns CSMA strain housefly (Musca domestica). The data set can be described thus: Topical application to housefly adults, Test example 8. It is filed as in vivo. The settings on record: topical to ventral thorax, 0.5 μl/adult, female adults, 24 hours. As to the method: The present compounds as below and reference compounds were each diluted with acetone into test solutions having four different concentrations of active ingredient. Each test solution was topically applied to the ventral throrax of CSMA strain housefly female adults (Musca domestica), at a rate of 0.5 μl/adult by means of a microapplicator.
The adults were then liberated in a polyethylene cup and fed with milk, sugar and water. After 24 hours, the dead and alive were observed. The median lethal dosage (LD50 μg/adult) was obtained from the morality (3 replications).

Data set [6] can be described thus: Toxicity to killifish (TLm48), Test example 1. It is filed as in vivo, Oryzias latipes. The settings on record: for selectivity ratio: in vivo, TLm48 divided by concentration in water at green rice leafhopper LC50, read-out: Safety coefficient to fishes (a)/(b); for LC50 at 48 h: water, killifish, medium tolerance limit, read-out: Toxicity to fishes TLm48 (a). As for the experimental part:
Toxicity to killifish (Oryzias latipes) was tested accordig to the test method for toxicity to fishes described in Notification B No. 2735 of the Ministry of Agriculture and Forestry (Nov. 25, 1965). Namely, each of the present compounds (1), (2), (4), (5), (6), (8), (9), (11) and reference compounds was dissolved or suspended in "Tween 80" and diluted successively with dechlorinated tap water. Ten killifish (0.2-0.3 g per fish) were released in a 10-liter glass vessel containing 5 liters of each preparation.
In order to make it clearer that the present compounds have a low toxicity to fishes as well as a high insecticidal activity, a safety coefficient to fishes was calculated from the test results of toxicity to fishes and insecticidal activity. [formula]
A detailed explanation will be given to a method of how to calculate the safety coefficient. In the case of green rice leafhoppers, calculation was based on the concentration of active ingredient in water obtained by applying a test solution containing the active ingredient in an amount corresponding to LC50 (ppm) to a flooded paddy field 5 cm deep at a rate of 100 liter/10 are, provided that all the active ingredient applied entered the water.
For example, the safety coefficient to fishes of the present compound (1) is calculated as follows: The quantity of water in a flooded paddy field 5 cm deep and 10 are in area is 50 tons; when a test solution containing the active ingredient in an amount corresponding to LC50 (ppm) is added to the paddy field at a rate of 100 liter/10 are the concentration of the active ingredient in water (hereinafter referred to as (b)) is 0.008 pp; as the toxicity to fishes [TLm48 (ppm)] (hereinafter referred to as (a)) is >2.0 ppm, said coefficient can be calculated by dividing (a) by (b). In this case, the coefficient is >250, which means that the present compound (1) has a safety higher than 250-fold.

Data set [7] deals with green rice leafhopper (Nephotettix cincticeps), R-strain. Nature of the data set: Insecticidal activity against green rice leafhopper, sprayed rice plants, Test example 1. Format: in vivo. The settings on record: green rice leafhopper female adults, spray on rice plant, 26° C., 24 hours. As for the experimental part:
The emulsifiable concentrates of the present compounds and reference compounds prepared in Preparation example 1 were each formulated into test solutions having four different concentrations of active ingredient between 500 ppm and 0.5 ppm. Each test solution was sprayed on a rice plant in a 180-ml plastic cup which had elapsed one month after sowing, at a rate of 15 ml/2 cups by means of a turn table. After air-drying, the rice plate was covered with a wire-screen cage, and 15 female adults of green rice leafhopper (Nephotettix cincticeps) (a strain resistant to carbamates and organo-phosphates, hereinafter referred to as R-strain) were liberated therein. The plant was placed in an artificial climate chamber kept at 26° C. After 24 hours, the dead and alive were examined. The median lethal concentratin [LC50 (ppm)] was calculated from the mortality determined by 3 replications. […]

The structures appear in SMILES notation.

`CC1(C)C(C(=O)OC(C#N)c2ccc(F)c(Oc3ccc(Br)cc3)c2)C1C(Br)C(Br)(Br)Br` (stereo not drawn) [compound (3), 3-(4-Bromophenoxy)-4-fluoro-α-cyanobenzyl 2,2-dimethyl-3-(1,2,2,2-tetrabromoethyl)cyclopropanecarboxylate]: the “damage to rice plants by carmine mites” value in data set [1] is on record as “the spreading of the damage could be prevented”. Further, the “green rice leafhoppers alive” value in data set [2] is recorded as “no alive green rice leafhoppers were found”. In data set [3], the killifishes alive entry is listed as “all of the killifishes were alive”.

`CC1(C)[C@H](C(=O)OC(C#N)c2ccc(F)c(Oc3ccc(Cl)cc3)c2)[C@@H]1C(Br)C(Cl)(Cl)Br` (stereo partly drawn) [compound (10), 3-(4-Chlorophenoxy)-4-fluoro-α-cyanobenzyl d-cis-2,2-dimethyl-3-(1,2-dibromo-2,2-dichloroethyl)cyclopropanecarboxylate] displayed a mortality at 500 ppm in data set [4] of 100%. For the same compound, in data set [5], the LD50 is reported as 0.030 μg/adult.

Take `CC1(C)C(C=C(Cl)Cl)C1C(=O)OC(C#N)c1ccc(F)c(Oc2ccccc2)c1` (stereo not drawn) [(B), reference compound]: in data set [6], the selectivity ratio was below 2 and the LC50 at 48 h was below 0.01 µg/mL. The LC50 in data set [7] amounted to 2.5 ppm.

Turning to `CC1(C)C(C(=O)OC(C#N)c2cccc(Oc3ccccc3)c2)C1C(Br)C(Cl)(Cl)Br` (stereo not drawn) [(A), reference compound], in data set [6], the selectivity ratio came out at 50. Moreover, the LC50 in data set [7] turned out to be 5.0 ppm.

Take `CC1(C)C(C(=O)OC(C#N)c2ccc(F)c(Oc3ccc(Cl)cc3)c2)C1C(Br)C(Br)(Br)Br` (stereo not drawn) [compound (8), 3-(4-Chlorophenoxy)-4-fluoro-α-cyanobenzyl 2,2-dimethyl-3-(1,2,2,2-tetrabromoethyl)cyclopropanecarboxylate]: in data set [6], the selectivity ratio was above 83 and the LC50 at 48 h was above 1 µg/mL. This compound also registered an LC50 in data set [7] of 5.8 ppm. Also, the mortality at 500 ppm in data set [4] is 100%.

As to `CC1(C)[C@H](C(=O)OC(C#N)c2ccc(F)c(Oc3ccc(Br)cc3)c2)[C@@H]1C(Br)C(Cl)(Cl)Br` (relative stereo) [compound (2), 3-(4-Bromophenoxy)-4-fluoro-α-cyanobenzyl dl-cis-2,2-dimethyl-3-(1,2-dibromo-2,2-dichloroethyl)cyclopropanecarboxylate], in data set [6], the selectivity ratio was above 167 and the LC50 at 48 h was above 2 µg/mL. Further, the LC50 in data set [7] is given as 6.0 ppm.

In data set [4], `CC1(C)[C@H](C(=O)OC(C#N)c2ccc(F)c(Oc3ccc(Cl)cc3)c2)[C@@H]1C(Br)C(Cl)(Cl)Br` (relative stereo) [compound (7), 3-(4-Chlorophenoxy)-4-fluoro-α-cyanobenzyl dl-cis-2,2-dimethyl-3-(1,2-dibromo-2,2-dichloroethyl)cyclopropanecarboxylate] displayed a mortality at 500 ppm of 100%.

In data set [5], `CC1(C)C(C(=O)OC(C#N)c2cccc(Oc3ccc(Br)cc3)c2)C1C(Br)C(Cl)(Cl)Br` (stereo not drawn) [(D), reference compound] had an LD50 of 0.063 μg/adult.

For `CC1(C)[C@H](C(=O)OC(C#N)c2ccc(F)c(Oc3ccc(Br)cc3)c2)[C@@H]1C(Br)C(Br)(Br)Br` (stereo partly drawn) [compound (4), 3-(4-Bromophenoxy)-4-fluoro-α-cyanobenzyl d-cis-2,2-dimethyl-3-(1,2,2,2-tetrabromoethyl)cyclopropanecarboxylate], in data set [6], the selectivity ratio is above 154 and the LC50 at 48 h was above 2 µg/mL. The compound further gave an LC50 in data set [7] of 6.3 ppm.

In data set [5], `CC1(C)C(C(=O)OC(C#N)c2cccc(Oc3ccc(Cl)cc3)c2)C1C(Br)C(Cl)(Cl)Br` (stereo not drawn) [(C), reference compound] came in with an LD50 of 0.062 μg/adult.

For the compound `CC1(C)[C@H](C(=O)OC(C#N)c2ccc(F)c(Oc3ccc(Cl)cc3)c2)[C@H]1C(Br)C(Cl)(Cl)Br` (stereo partly drawn) [compound (9), 3-(4-Chlorophenoxy)-4-fluoro-α-cyanobenzyl d-trans-2,2-dimethyl-3-(1,2-dibromo-2,2-dichloroethyl)cyclopropanecarboxylate], in data set [6], the selectivity ratio is above 333 and the LC50 at 48 h is above 1 µg/mL. Moreover, the LC50 in data set [7] worked out at 1.5 ppm. The “damage to rice plants by carmine mites” value in data set [1] is given as “the spreading of the damage could be prevented”. In data set [4], this compound yielded a mortality at 500 ppm of 100%. For the same compound, the LD50 in data set [5] is recorded as 0.018 μg/adult.

In the case of `CC1(C)[C@H](C(=O)OC(C#N)c2ccc(F)c(Oc3ccc(Cl)cc3)c2)[C@H]1C(Br)C(Cl)(Cl)Br` (relative stereo) [compound (6), 3-(4-Chlorophenoxy)-4-fluoro-α-cyanobenzyl dl-trans-2,2-dimethyl-3-(1,2-dibromo-2,2-dichloroethyl)cyclopropanecarboxylate], in data set [6], the selectivity ratio is above 200 and the LC50 at 48 h was above 1 µg/mL. In data set [7], the LC50 is 2.7 ppm. Further, the “green rice leafhoppers alive” value in data set [2] was “no alive green rice leafhoppers were found”. Further, the killifishes alive result in data set [3] is on record as “all of the killifishes were alive”. The mortality at 500 ppm in data set [4] was 100%. The same compound displayed an LD50 in data set [5] of 0.031 μg/adult.

The mortality is the share of the test organisms that died. Lower therefore signals a weak lethal effect.
